The text below walks through data of US20230255904A1, “PHARMACEUTICAL COMPOSITION FOR PREVENTING OR TREATING CANCER COMPRISING NAPHTHOQUINONE-BASED COMPOUND AND IMMUNE CHECKPOINT INHIBITOR AS ACTIVE INGREDIENTS” (NADIANBIO LTD., priority 2020, published 2023).

One experiment deals with 4T1. Kind of experiment: Tumor growth inhibition, animal model for breast cancer I (4T1). It is filed as in vivo, BALB/c mice. As to conditions: Experimental Example 10; Dunnione 40 mg/kg oral every day from 5th day; Anti-CTLA4 antibody 200 μg/head i.p. at intervals of 3 days from 5th day, 4 times; Mitoxantrone 6 mg/kg i.p. once on 5th day. The method, then:
(§1) All mice used in the experiments were raised in a sterile animal room with constant temperature (22° C. to 26° C.) and constant humidity (55% to 60%), acclimatized for 1 week while sufficiently supplying typical solid feed (Samtako Inc., Korea) and water, and then used. All experiments were conducted after obtaining approval from the Institutional Animal Care and Use Committee in accordance with the laboratory animal care and ethics regulations of the Institutional Animal Care and Use Committee of Wonkwang University.
(§2) 7-week-old BALB/c or C57BL/6 mice were used, and subcutaneously inoculated using a 1-mL insulin syringe within 30 minutes after mixing the mouse cancer cells with 0.2 mL of PBS.
(§3) After the cancer cell line was subcutaneously implanted, the administration of drugs was started when the size of the cancer reached 50 to 100 mm^3. The volumes (mm^3) of the tumors, which were generated after the inoculation, were measured at intervals of 3 days using a caliper, calculation was performed using the formula of […], and then the results thereof were compared.
(§4) In addition, sole administration or co-administration of respective drugs was performed according to the administration schedules listed in Tables 4 to 34 below, the tumor volumes were then measured according to the tumor proliferation assessment method described in Example 1.1, the tumor growth inhibition rates (TGI (O)=(Vc−Vt)/Vc×100(%); Vc: tumor volume of control, Vt tumor volume of experimental group) were calculated based the tumor volumes, and the results thereof are shown in the respective tables and FIGS. 1 to 31.

In the next experiment the test system is calreticulin (ecto-CRT). Kind of experiment: Immunogenic cell death analysis: calreticulin on the surface of tumor cells by flow cytometry. It is filed as cell-based. The note with it: compared to the control. The procedure:
Calreticulin is one of the most important molecules in the immunogenic cell death process. When the calreticulin appears on membranes of tumor cell, a strong signal for phagocytotic cells including dendritic cells may be generated to cause the phagocytotic cells to attack dying tumor cells. This is the most significant “eat me” signal for immune cells. Whether or not immunogenic cell death was induced by the anticancer agents used in the present invention was assessed through the quantitative change of calreticulin expressed on the surface of cancer cells after the treatment with the anticancer agents. Single cells isolated from the tumor were incubated with anti-calreticulin antibody (ratio of 1:50) as a primary antibody at 4° C. for 30 minutes, and then washed 2 times with PBS.
For orientation: A flow cytometer gives signals particle by particle.

For a further experiment, the system named is RENCA. Kind of experiment: Tumor growth inhibition, animal model for renal cancer (RENCA). It is filed as in vivo, BALB/c mice. As to conditions: Dunnione 40 mg/kg oral every day from 7th day. The method, then: as §1, §2, §3, §4
The subject of the next experiment is B16F10. Kind of experiment: Tumor growth inhibition, animal model for skin cancer (B16F10). It counts as in vivo,  mice. As to conditions: Experimental Example 26; Dunnione 40 mg/kg oral every day from 8th day; Everolimus 0.5 mg/kg oral every day from 8th day. The procedure:
as §1, §2, §3, §4

Another experiment deals with MC38. The experiment in a line: Tumor growth inhibition, animal model for colorectal cancer I (MC38). It is filed as in vivo, C57BL/6 mice. As to conditions: Experimental Example 4; Dunnione 40 mg/kg oral every day from 7th day; Anti-LAG3 antibody 200 μg/head i.p. on 7th, 10th, 14th, 17th days; Oxaliplatin 6 mg/kg i.p. on 7th and 14th days. The procedure: as §1, §2, §3, §4

With `O=C1c2c(O)ccc(O)c2C(=O)c2c(NCCNCCO)ccc(NCCNCCO)c21` [Mitoxantrone, reference compound], the “TGI (%)” value in the experiment with 4T1 was found to be 16.3%. The “Expression rate (%) of calreticulin on cell surface” value (“Expression rate (%) of calreticulin” for short) in the experiment on calreticulin (ecto-CRT) (Breast cancer, 4T1) is 385%.
Turning to `CCN1CCN(Cc2ccc(Nc3ncc(F)c(-c4cc(F)c5nc(C)n(C(C)C)c5c4)n3)nc2)CC1` [Abemaciclib], the “Expression rate (%) of calreticulin” value in the experiment on calreticulin (ecto-CRT) (Breast cancer, EMT6) came out at 263%.
Regarding `CNC(=O)c1cccc(-c2ccc3c(N4CCOC[C@@H]4C)nc(N4CCOC[C@@H]4C)nc3n2)c1` [Vistusertib], the “Expression rate (%) of calreticulin” value with calreticulin (ecto-CRT) (Colorectal cancer, MC38) turned out to be 175%; with calreticulin (ecto-CRT) (Renal cancer, RENCA), 341%; in the experiment on calreticulin (ecto-CRT) (Skin cancer (melanoma), B16F10) it was 145%.
For `CNC(=O)c1cc(Oc2ccc(NC(=O)Nc3ccc(Cl)c(C(F)(F)F)c3)cc2)ccn1` [Sorafenib, reference compound], in the experiment with RENCA (Experimental Example 16, Sorafenib 10 mg/kg oral every day from 7th day), the “TGI (%)” value is reported as 29.4%. Besides, the “Expression rate (%) of calreticulin” value with calreticulin (ecto-CRT) (Liver cancer, Hapa1-6) came out at 435%.
As for `CO[C@H]1C[C@@H]2CC[C@@H](C)[C@@](O)(O2)C(=O)C(=O)N2CCCC[C@H]2C(=O)O[C@H]([C@H](C)C[C@@H]2CC[C@@H](OCCO)[C@H](OC)C2)CC(=O)[C@H](C)/C=C(\C)[C@@H](O)[C@@H](OC)C(=O)[C@H](C)C[C@H](C)/C=C/C=C/C=C/1C` [Everolimus, reference compound], the “TGI (%)” value was 72.8% with RENCA (Experimental Example 15, Anti-CTLA4 antibody 200 μg/head i.p. at intervals of 3 days from 7th day, 7 times, Everolimus 250 μg/kg oral every day from 7th day) and 28.5% with B16F10. Besides, the “Expression rate (%) of calreticulin” value in the experiment with calreticulin (ecto-CRT) (Liver cancer, Hapa1-6) is recorded as 892%; in the experiment with calreticulin (ecto-CRT) (Renal cancer, RENCA), 134%; with calreticulin (ecto-CRT) (Skin cancer (melanoma), B16F10), 216%.
On to `O=C1[O][Pt]2([NH][C@@H]3CCCC[C@H]3[NH]2)[O]C1=O` [Oxaliplatin, reference compound], for which the “TGI (%)” value in the experiment with MC38 was 5.6%.
As to `CNC(=O)c1cc(Oc2ccc(NC(=O)Nc3ccc(Cl)c(C(F)(F)F)c3)c(F)c2)ccn1` [Regorafenib], the “Expression rate (%) of calreticulin” value in the experiment on calreticulin (ecto-CRT) (Colorectal cancer, MC38) came to 134%; in the experiment on calreticulin (ecto-CRT) (Skin cancer (melanoma), B16F10), 166%.
With `COc1cccc2c1C(=O)c1c(O)c3c(c(O)c1C2=O)C[C@@](O)(C(=O)CO)C[C@@H]3O[C@H]1C[C@H](N)[C@H](O)[C@H](C)O1` [Adriamycin], the “Expression rate (%) of calreticulin” value with calreticulin (ecto-CRT) (Breast cancer, 4T1) worked out at 307%.
On to `CC(=O)O[C@H]1C(=O)[C@@]2(C)[C@H]([C@H](OC(=O)c3ccccc3)[C@]3(O)C[C@H](OC(=O)[C@H](O)[C@@H](NC(=O)c4ccccc4)c4ccccc4)C(C)=C1C3(C)C)[C@]1(OC(C)=O)CO[C@@H]1C[C@@H]2O` [Paclitaxel], for which, in the experiment with calreticulin (ecto-CRT) (Skin cancer (melanoma), B16F10), the “Expression rate (%) of calreticulin” value is recorded as 186%.
